Assay: Biochemical Assay: Active Moz protein was expressed as N-terminal fusion protein with a His6 tag in BL21 E. coli cells. Protein purification was performed via nickel-immobilized metal ion affinity chromatography followed by gel filtration. […] The reactions were performed in assay buffer (100 mM Tris-HCl, pH 7.8, 15 mM NaCl, 1 mM EDTA, 0.01% Tween-20, 1 mM Dithiothreitol, and 0.02% m/v chicken egg white albumin). Reactions were set up with 0.4 μM Acetyl coenzyme A (AcCoA), 50 nM N-terminal histone H4 peptide (sequence […]-GGK-biotin), 10 nM MOZ enzyme, and an acetyl-lysine specific antibody (final dilution 1:10000). 11-point dilution series of the compounds of the invention were prepared in DMSO; a volume of 100 nL was transferred using a pin tool into assay plates containing substrates, before adding enzyme to start the reaction. Positive (no compound) and negative (AcCoA omitted) control reactions were included on the same plates and received the same amount of DMSO as the compound treated wells. After adding all reagents, the plates were sealed with adhesive seals and incubated for 90 minutes at room temperature. An additional 4 μL of assay buffer containing AlphaScreen® Protein A acceptor beads and Streptavidin donor beads (PerkinElmer, Waltham, Mass.) to a final concentration of 4 μg/mL was then added. […]

| Structure (SMILES) | IC50 |
| --- | --- |
| O=C(NNS(=O)(=O)c1ccccc1F)c1cc(-c2ccc(F)cc2)ccc1F | 0.839 µM |
| O=C(NNS(=O)(=O)c1ccc2ccccc2c1)c1cccc(-c2cccnc2)c1 | 13.1 µM |
